Values joined by “and” are separate entries in the source; they are usually repeats but may differ in a detail not shown here. Equal values may be shown once. Read-outs that look alike come from different tables or passages of the source.
Columns and labels:
[1] = biological target: Human erythrocyte AChE (Homo sapiens, UniProt P22303); assay: biochemical; type: biochemical
Description: (§1) Human erythrocyte AChE and equine serum BChE were purchased from Milamed (Perm, Russia). Porcine liver CES, substrates, and reference compounds were from Sigma-Aldrich (St. Louis, MO, USA). The activity of enzymes was measured spectrophotometrically, as described in detail in [72] using ATCh iodide, BTCh iodide, and 4-NPA as substrates for AChE, BChE, and CES, respectively. Experimental conditions: K,Na—phosphate buffer (100 mM), 25 °C, pH 7.5 for AChE and BChE and pH 8.0 for CES assay. Measurements were carried out on a FLUOStar Optima microplate reader (BMG Labtech, Ortenberg, Germany).
(§2) Test compounds were dissolved in DMSO; the final concentration of solvent in the incubation mixture was 2% (v/v).

[2] = biological target: equine serum BChE (Equus caballus, UniProt P81908); assay: biochemical; type: biochemical
Sequence of equine serum BChE (P81908 whole entry): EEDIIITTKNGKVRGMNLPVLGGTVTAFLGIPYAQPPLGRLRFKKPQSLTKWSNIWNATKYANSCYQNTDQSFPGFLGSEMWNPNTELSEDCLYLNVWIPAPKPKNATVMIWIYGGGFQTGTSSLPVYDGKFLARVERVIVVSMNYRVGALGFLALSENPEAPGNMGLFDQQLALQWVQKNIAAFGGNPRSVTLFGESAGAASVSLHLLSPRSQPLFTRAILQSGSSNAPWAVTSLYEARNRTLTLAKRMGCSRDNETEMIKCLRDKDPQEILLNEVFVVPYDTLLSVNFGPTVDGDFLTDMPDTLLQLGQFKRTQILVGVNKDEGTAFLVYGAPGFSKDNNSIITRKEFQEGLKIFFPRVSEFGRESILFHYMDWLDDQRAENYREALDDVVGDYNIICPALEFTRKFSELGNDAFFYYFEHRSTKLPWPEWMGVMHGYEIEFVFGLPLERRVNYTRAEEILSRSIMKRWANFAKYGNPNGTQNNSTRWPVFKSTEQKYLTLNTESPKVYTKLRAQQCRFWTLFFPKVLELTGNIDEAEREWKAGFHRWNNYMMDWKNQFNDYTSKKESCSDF
Description: as §1, §2

[3] = ABTS radical cation scavenging assay; settings: for ABTS•+-Scavenging Activity TEAC: Trolox equivalents; for time to reach the activity level of Trolox in ABTS radical scavenging: compound at 20 μM (IC50 of Trolox)
[4] = system: Porcine liver CES; assay: CES inhibition, spectrophotometric, 4-NPA substrate; type: biochemical
Description: as §1
Test compounds were dissolved in DMSO; the final concentration of solvent in the incubation mixture was 2% (v/v). […]

[5] = Ferric-reducing antioxidant power (FRAP) assay; settings: Trolox equivalents
[6] = biological target: peripheral anionic site of Electrophorus electricus AChE (EeAChE) (Electrophorus electricus, UniProt O42275); type: binding;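 further: compounds tested at 20 µM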
Sequence of peripheral anionic site of Electrophorus electricus AChE (EeAChE) (O42275 24-633): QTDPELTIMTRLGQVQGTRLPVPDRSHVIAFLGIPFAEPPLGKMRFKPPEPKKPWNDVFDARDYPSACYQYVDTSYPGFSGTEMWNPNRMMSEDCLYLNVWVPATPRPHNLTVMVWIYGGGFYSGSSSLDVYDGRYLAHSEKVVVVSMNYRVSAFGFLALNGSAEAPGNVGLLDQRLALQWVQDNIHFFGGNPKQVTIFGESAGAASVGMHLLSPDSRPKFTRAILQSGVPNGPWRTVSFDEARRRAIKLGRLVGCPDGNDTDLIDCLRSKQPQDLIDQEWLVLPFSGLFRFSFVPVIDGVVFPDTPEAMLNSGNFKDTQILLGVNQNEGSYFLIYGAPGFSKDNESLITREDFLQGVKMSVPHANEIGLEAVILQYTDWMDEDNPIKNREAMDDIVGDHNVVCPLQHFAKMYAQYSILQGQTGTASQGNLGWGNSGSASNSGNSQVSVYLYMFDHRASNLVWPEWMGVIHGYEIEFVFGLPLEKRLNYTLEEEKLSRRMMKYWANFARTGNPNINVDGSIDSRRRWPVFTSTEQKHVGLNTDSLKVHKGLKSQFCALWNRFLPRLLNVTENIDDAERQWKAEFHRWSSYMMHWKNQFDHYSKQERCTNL

[7] = biological target: Aβ42 (Homo sapiens, UniProt P05067); assay: Inhibition of Aβ42 self-aggregation, thioflavin T fluorescence; type: biochemical; settings: for inhibition at 100 µM: read-out: Inhibition of Aβ42 Self-Aggregation
Sequence of Aβ42 (P05067 672-713): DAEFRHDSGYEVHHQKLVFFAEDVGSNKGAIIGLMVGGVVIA

Sequence of Human erythrocyte AChE (P22303 other isoform, or with tags, fused parts or gaps): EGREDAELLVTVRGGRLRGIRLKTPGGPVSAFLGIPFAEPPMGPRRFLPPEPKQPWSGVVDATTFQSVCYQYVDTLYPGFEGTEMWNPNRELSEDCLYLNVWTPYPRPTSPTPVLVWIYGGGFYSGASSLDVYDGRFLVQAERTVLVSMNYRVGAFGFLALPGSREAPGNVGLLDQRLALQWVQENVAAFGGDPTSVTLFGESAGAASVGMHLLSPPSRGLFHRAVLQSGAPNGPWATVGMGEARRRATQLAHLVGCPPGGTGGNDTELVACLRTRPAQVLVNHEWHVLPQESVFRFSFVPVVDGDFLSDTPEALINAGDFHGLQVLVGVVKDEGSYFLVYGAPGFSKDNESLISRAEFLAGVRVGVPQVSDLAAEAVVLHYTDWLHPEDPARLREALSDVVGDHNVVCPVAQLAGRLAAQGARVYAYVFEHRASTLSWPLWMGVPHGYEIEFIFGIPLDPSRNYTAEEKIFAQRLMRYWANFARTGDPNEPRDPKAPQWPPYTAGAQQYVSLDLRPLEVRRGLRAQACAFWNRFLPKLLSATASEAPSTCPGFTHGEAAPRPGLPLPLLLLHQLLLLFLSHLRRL

Which results are given for CC(C)(C)c1cc(C=NCCCCNc2c3c(nc4ccccc24)CCCCC3)cc(C(C)(C)C)c1O [15b, 2,6-Di-tert-butyl-4-{[4-(7,8,9,10-tetrahydro-6H-cyclohepta[b]quinolin-11-ylamino)-butylimino]-methyl}-phenol]?
IC50 [1]: 524 ± 20 nM; IC50 [2]: 131 ± 4 nM; IC50 [3]: 22.5 ± 1.4 µM; ABTS•+-Scavenging Activity TEAC [3]: 0.89 ± 0.04; CES % inhibition at 20 μM [4]: 26.3 ± 0.4%; Ferric-Reducing Antioxidant Power TE [5]: 0.46 ± 0.01; Propidium Displacement [6]: 18.4 ± 1.4 **^,§ %

With CC(C)(C)c1cc(C=NCCCCNc2c3c(nc4ccccc24)CCCC3)cc(C(C)(C)C)c1O [14b, 2,6-Di-tert-butyl-4-{[4-(1,2,3,4-tetrahydro-acridin-9-ylamino)-butylimino]-methyl}-phenol] as the molecule, how does the IC50 [1] read?
The IC50 was 424 ± 22 nM.

What about the IC50 [2] of the same molecule?
The IC50 was 385 ± 31 nM.

And the IC50 [3]?
The IC50 was 19.7 ± 0.9 µM.

And the “ABTS•+-Scavenging Activity TEAC” value [3]?
The value was 1.0 and 1.00 ± 0.05.

And the “CES % inhibition at 20 μM” value [4]?
Its value is 26.6 ± 2.2%.

And the “Propidium Displacement” value [6]?
The value was 17.6 ± 1.4 *^,§ %.

For CC(C)(C)c1cc(CNCCCCNc2c3c(nc4ccccc24)CCCC3)cc(C(C)(C)C)c1O [17b, 2,6-Di-tert-butyl-4-{[4-(1,2,3,4-tetrahydro-acridin-9-ylamino)-butylamino]-methyl}-phenol], which IC50 [1] is on record?
The IC50 was 279 ± 22 nM.

What about the IC50 [2] of the same molecule?
The IC50 was 111 ± 9 nM.

And the IC50 [3]?
Its IC50 is 14.3 ± 0.6 µM.

What about the “time to reach the activity level of Trolox in ABTS radical scavenging” value [3] of the same molecule?
The value was “less than 1 min”.

And the “CES % inhibition at 20 μM” value [4]?
The value was 15.8 ± 1.4%.

And the “Propidium Displacement” value [6]?
Its value is 15.4 ± 1.3%.

Which IC50 [1] does the source give for CC(C)(C)c1cc(CNCCCCCCNc2c3c(nc4ccccc24)CCCC3)cc(C(C)(C)C)c1O [17c, 2,6-Di-tert-butyl-4-{[6-(1,2,3,4-tetrahydro-acridin-9-ylamino)-hexylamino]-methyl}-phenol] here?
Its IC50 is 70.2 ± 1.1 nM.

And the IC50 [2]?
The IC50 was 36.1 ± 23 nM.

And the inhibition at 100 µM ([7]; Aβ42 50 µM, compound 100 µM)?
Its inhibition at 100 µM is 64.1 ± 5.7%.

What about the IC50 [3] of the same molecule?
The IC50 was 15.7 ± 0.6 µM.

And the “ABTS•+-Scavenging Activity TEAC” value [3]?
Its value is 1.32 ± 0.08.

And the “time to reach the activity level of Trolox in ABTS radical scavenging” value [3]?
Its value is “less than 1 min”.

And the “CES % inhibition at 20 μM” value [4]?
The value was 18.5 ± 1.6%.

And the “Ferric-Reducing Antioxidant Power TE” value [5]?
Its value is 0.44 ± 0.02.

What about the “Propidium Displacement” value [6] of the same molecule?
Its value is 16.1 ± 1.1%.

What does the source list for CC(C)(C)c1cc(C=NCCCCCCNc2c3c(nc4ccccc24)CCCC3)cc(C(C)(C)C)c1O [14c, 2,6-Di-tert-butyl-4-{[6-(1,2,3,4-tetrahydro-acridin-9-ylamino)-hexylimino]-methyl}-phenol]?
IC50 [1]: 71.2 ± 1.2 nM; IC50 [2]: 55 ± 5 nM; inhibition at 100 µM ([7]; Aβ42 50 µM, compound 100 µM): 62.4 ± 4.9%; IC50 [3]: 18.6 ± 0.9 µM; ABTS•+-Scavenging Activity TEAC [3]: 1.10 ± 0.05; CES % inhibition at 20 μM [4]: 25.1 ± 1.9%; Ferric-Reducing Antioxidant Power TE [5]: 0.71 ± 0.02; Propidium Displacement [6]: 19.7 ± 1.5 **^,§ %

What does the source list for CC(C)(C)c1cc(CNCCCCNc2c3c(nc4ccccc24)CCCCC3)cc(C(C)(C)C)c1O [18b, 2,6-Di-tert-butyl-4-{[4-(7,8,9,10-tetrahydro-6H-cyclohepta[b]quinolin-11-ylamino)-butylamino]-methyl}-phenol]?
IC50 [1]: 436 ± 16 nM; IC50 [2]: 67.8 ± 6.1 nM; IC50 [3]: 14.6 ± 0.5 µM; time to reach the activity level of Trolox in ABTS radical scavenging [3]: less than 1 min; CES % inhibition at 20 μM [4]: 21.4 ± 1.8%; Ferric-Reducing Antioxidant Power TE [5]: 0.38 ± 0.01; Propidium Displacement [6]: 15.7 ± 1.2%

For Nc1c2c(nc3ccccc13)CCCC2 [Tacrine, reference compound], which “Inhibition of Aβ42 Self-Aggregation” value ([7]; Aβ42 50 µM, compound 100 µM) is on record?
Its value is “minimal inhibition”.

For O=c1c(O)c(-c2cc(O)c(O)c(O)c2)oc2cc(O)cc(O)c12 [Myricetin, reference compound], which inhibition at 100 µM [7] is on record?
The inhibition at 100 µM was 73.2 ± 5.8%.

Which IC50 [1] does the source give for CC(C)(C)c1cc(CNCCCCNc2c3c(nc4ccccc24)CCC3)cc(C(C)(C)C)c1O [16b, 2,6-Di-tert-butyl-4-{[4-(2,3-dihydro-1H-cyclopenta[b]quinolin-9-ylamino)-butylamino]-methyl}-phenol] here?
Its IC50 is 912 ± 16 nM.

What about the IC50 [2] of the same molecule?
Its IC50 is 177 ± 17 nM.

What about the IC50 [3] of the same molecule?
The IC50 was 23.6 ± 1.3 µM.

And the “ABTS•+-Scavenging Activity TEAC” value [3]?
Its value is 0.90 ± 0.04.

What about the “CES % inhibition at 20 μM” value [4] of the same molecule?
Its value is 17.2 ± 3.3%.

What about the “Ferric-Reducing Antioxidant Power TE” value [5] of the same molecule?
The value was 0.44 ± 0.02.

What about the “Propidium Displacement” value [6] of the same molecule?
Its value is 17.5 ± 1.5 *^,§ %.

Which results are given for CC(C)(C)c1cc(CNCCCCCCNc2c3c(nc4ccccc24)CCC3)cc(C(C)(C)C)c1O [16c, 2,6-Di-tert-butyl-4-{[6-(2,3-dihydro-1H-cyclopenta[b]quinolin-9-ylamino)-hexylamino]-methyl}-phenol]?
IC50 [1]: 205 ± 12 nM; IC50 [2]: 48.8 ± 0.5 nM; IC50 [3]: 13.4 ± 0.7 µM; time to reach the activity level of Trolox in ABTS radical scavenging [3]: less than 1 min; CES % inhibition at 20 μM [4]: 18.7 ± 0.7%; Ferric-Reducing Antioxidant Power TE [5]: 0.51 ± 0.02; Propidium Displacement [6]: 15.8 ± 1.4%
